Measured values from PMC5362808, “Discovery of multi-target receptor tyrosine kinase inhibitors as novel anti-angiogenesis agents” (Scientific Reports, 2017).
Where two headings read alike, the source gives them in different places.

Columns and labels:
[1] = target: TIE-2 (Homo sapiens, UniProt Q02763); assay: ADP-Glo kinase inhibition assay, TIE-2; assay type: biochemical
Experimental: (§1) Tyrosine kinase inhibition were tested by luminescent ADP-Glo^TM assay.
(§2) The kinase assay was performed in duplicate in a reaction mixture of final volume of 10 μL. […] The assay plate was incubated at 30 °C for 1 h. After the plate was cooled at room temperature for 5 min, 5 μL of ADP-Glo reagent was added into each well to stop the reaction and consume the remaining […] within 40 min. At the end, 10 μL of kinase detection reagent was added into the well and incubated for 30 min to produce a luminescence signal. […] The assay plate was incubated at 30 °C for 4 h. After the plate was cooled at room temperature for 5 min, 5 μL of ADP-Glo reagent was added into each well to stop the reaction and consume the remaining […] within 1 h. At the end, 10 μL of kinase detection reagent was added into the well and incubated for 30 min to produce a luminescence signal. The luminescence was read by VICTOR-X multi- label plate reader. The signal was correlated with the amount of […] present in the reaction and was […] with the kinase activity.

[2] = target: VEGFR-2 (Homo sapiens, UniProt P35968); assay: ADP-Glo kinase inhibition assay, VEGFR-2; assay type: biochemical; conditions: read-out: VEGFR-2 inhibitory activity (IC50)
Experimental: as §1, §2

[3] = target: T1, EphB4 (Homo sapiens, UniProt P54760); assay: ADP-Glo kinase inhibition assay, EphB4; assay type: biochemical; conditions: read-out: EphB4 inhibitory activity (IC50)
T1 sequence (P54760 16-987): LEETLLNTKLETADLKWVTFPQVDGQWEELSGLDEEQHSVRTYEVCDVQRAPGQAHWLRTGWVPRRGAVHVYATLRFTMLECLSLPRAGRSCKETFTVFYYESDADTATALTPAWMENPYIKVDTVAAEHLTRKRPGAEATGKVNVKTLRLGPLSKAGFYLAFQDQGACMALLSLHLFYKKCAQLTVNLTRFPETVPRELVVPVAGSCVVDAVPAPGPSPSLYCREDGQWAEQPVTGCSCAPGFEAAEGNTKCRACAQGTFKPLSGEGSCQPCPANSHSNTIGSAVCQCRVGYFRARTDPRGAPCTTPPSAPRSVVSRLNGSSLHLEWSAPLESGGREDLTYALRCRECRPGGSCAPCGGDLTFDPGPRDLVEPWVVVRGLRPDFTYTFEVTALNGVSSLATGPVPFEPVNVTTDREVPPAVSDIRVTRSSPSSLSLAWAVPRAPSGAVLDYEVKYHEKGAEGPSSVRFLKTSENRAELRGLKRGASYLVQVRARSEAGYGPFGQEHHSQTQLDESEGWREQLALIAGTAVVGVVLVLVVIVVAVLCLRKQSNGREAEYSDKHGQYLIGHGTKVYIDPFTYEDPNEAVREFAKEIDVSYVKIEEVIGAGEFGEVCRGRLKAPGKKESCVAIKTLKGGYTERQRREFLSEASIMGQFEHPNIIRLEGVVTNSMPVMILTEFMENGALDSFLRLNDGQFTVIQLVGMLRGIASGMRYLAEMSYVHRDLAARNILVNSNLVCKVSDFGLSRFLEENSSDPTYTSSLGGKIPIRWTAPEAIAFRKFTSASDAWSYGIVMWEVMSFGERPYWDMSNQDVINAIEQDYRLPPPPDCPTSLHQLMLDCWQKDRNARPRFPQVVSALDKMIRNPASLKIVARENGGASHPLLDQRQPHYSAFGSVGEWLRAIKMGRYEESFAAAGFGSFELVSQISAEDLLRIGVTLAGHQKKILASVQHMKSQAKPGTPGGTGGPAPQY
Experimental: as §1, §2

[4] = tested on: EA.hy926; assay: MTT anti-proliferative assay against human vascular endothelial cell; assay type: cell-based; conditions: EA.hy 926, 48 h treatment
Experimental: Growth inhibitory activities were evaluated against human vascular endothelial cell (EA.hy926)[25]. Thirteen selected title compounds were tested using MTT assay to assess cell proliferation. Exponentially growing cells were harvested and plated in 96-well plates at a concentration of […] cells/well, and then incubated for 24 h at 37 °C. The cells were treated with title compounds respectively at various concentrations for 48 h. Then, […] fresh MTT (5 mg/mL) was added to each well and incubated for 4 h at 37 °C. Supernatant was discarded, and […] DMSO was added to each well. Absorbance values were determined by a microplate reader (Bio-Rad Instruments) at 490 nm. The IC50 values were calculated according to inhibition ratios.

[5] = target: EGFR (Homo sapiens, UniProt P00533); assay: Kinase selectivity assay, EGFR; assay type: biochemical; conditions: Table 3 selectivity profile
[6] = target: FGFR-1 (Homo sapiens, UniProt P11362); assay: Kinase selectivity assay, FGFR-1; assay type: biochemical; conditions: Table 3 selectivity profile
[7] = target: Src (Homo sapiens, UniProt P12931); assay: Kinase selectivity assay, Src; assay type: biochemical; conditions: Table 3 selectivity profile
[8] = tested on: mouse lung tissue blood vessels; assay: Tissue model for angiogenesis (TMA), lung tissue vessel sprouting; conditions: 15.6 μM; observed on the 5th day
Experimental: A novel tissue model for angiogenesis that imitated new blood vessels formation in vivo had been established in the previous study.
Figure 8 Anti-angiogenesis potency of compound CDAU-2 in tissue model for angiogenesis (TMA). (A–F) the representative images of lung tissue blood vessels in the TMA on the 5th day; (A) the untreated control group; (B–F) lung tissue vessels in the CDAU-2 treated group; (B) 1.94 μM; (C) 3.87 μM; (D) 7.75 μM; (E) 15.6 μM; (F) 62.5 μM.
In brief, the mouse lung tissue was separated and cut into pieces (0.5–1.0 mm^3)[27]. Then pieces of lung tissue were placed onto 48-well plate coated with polymerized fibrinogen with thrombin. After consolidation, each group was incubated with 200 μL/well 1640 medium containing different concentrations of CDAU-2. Control groups were incubated with 2.5% DMSO or 1640 medium alone.

[9] = target: B-Raf (Homo sapiens, UniProt P15056); assay: Kinase selectivity assay, B-Raf; assay type: biochemical; conditions: Table 3 selectivity profile
[10] = Table 2, ATP 50 μM, read-out: TIE-2 inhibitory activity (IC50)
[11] = Table 1, ATP 50 μM, read-out: Tie-2 inhibitory activity (IC50)

TIE-2, sequence (Q02763 23-1124): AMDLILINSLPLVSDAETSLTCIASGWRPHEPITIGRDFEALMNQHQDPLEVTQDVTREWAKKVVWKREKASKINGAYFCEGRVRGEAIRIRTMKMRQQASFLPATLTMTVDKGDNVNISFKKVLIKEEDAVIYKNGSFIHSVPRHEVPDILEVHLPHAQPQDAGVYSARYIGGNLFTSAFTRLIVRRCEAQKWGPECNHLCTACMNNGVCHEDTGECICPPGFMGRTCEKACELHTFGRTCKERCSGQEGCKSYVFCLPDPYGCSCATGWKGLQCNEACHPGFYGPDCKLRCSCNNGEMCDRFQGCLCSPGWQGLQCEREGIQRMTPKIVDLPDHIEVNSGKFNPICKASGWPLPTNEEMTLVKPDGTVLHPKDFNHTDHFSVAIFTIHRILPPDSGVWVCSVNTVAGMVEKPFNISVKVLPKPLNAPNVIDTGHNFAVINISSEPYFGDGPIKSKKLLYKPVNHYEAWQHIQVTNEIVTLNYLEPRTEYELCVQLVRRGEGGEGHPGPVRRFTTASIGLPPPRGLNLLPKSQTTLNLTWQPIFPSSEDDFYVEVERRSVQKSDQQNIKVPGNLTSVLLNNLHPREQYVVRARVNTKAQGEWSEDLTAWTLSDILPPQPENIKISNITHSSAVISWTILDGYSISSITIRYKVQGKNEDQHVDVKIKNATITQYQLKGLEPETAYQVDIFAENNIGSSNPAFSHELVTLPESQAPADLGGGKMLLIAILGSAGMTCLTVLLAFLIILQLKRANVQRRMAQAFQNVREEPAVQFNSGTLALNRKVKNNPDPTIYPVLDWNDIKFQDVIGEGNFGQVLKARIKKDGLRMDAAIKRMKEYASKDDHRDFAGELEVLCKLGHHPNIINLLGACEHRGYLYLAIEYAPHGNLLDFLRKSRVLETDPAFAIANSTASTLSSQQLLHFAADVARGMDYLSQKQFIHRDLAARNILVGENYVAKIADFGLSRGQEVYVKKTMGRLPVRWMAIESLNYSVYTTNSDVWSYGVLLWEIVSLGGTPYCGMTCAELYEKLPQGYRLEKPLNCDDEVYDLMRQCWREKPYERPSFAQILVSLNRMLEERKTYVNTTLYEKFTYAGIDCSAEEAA
VEGFR-2, sequence (P35968 20-1356): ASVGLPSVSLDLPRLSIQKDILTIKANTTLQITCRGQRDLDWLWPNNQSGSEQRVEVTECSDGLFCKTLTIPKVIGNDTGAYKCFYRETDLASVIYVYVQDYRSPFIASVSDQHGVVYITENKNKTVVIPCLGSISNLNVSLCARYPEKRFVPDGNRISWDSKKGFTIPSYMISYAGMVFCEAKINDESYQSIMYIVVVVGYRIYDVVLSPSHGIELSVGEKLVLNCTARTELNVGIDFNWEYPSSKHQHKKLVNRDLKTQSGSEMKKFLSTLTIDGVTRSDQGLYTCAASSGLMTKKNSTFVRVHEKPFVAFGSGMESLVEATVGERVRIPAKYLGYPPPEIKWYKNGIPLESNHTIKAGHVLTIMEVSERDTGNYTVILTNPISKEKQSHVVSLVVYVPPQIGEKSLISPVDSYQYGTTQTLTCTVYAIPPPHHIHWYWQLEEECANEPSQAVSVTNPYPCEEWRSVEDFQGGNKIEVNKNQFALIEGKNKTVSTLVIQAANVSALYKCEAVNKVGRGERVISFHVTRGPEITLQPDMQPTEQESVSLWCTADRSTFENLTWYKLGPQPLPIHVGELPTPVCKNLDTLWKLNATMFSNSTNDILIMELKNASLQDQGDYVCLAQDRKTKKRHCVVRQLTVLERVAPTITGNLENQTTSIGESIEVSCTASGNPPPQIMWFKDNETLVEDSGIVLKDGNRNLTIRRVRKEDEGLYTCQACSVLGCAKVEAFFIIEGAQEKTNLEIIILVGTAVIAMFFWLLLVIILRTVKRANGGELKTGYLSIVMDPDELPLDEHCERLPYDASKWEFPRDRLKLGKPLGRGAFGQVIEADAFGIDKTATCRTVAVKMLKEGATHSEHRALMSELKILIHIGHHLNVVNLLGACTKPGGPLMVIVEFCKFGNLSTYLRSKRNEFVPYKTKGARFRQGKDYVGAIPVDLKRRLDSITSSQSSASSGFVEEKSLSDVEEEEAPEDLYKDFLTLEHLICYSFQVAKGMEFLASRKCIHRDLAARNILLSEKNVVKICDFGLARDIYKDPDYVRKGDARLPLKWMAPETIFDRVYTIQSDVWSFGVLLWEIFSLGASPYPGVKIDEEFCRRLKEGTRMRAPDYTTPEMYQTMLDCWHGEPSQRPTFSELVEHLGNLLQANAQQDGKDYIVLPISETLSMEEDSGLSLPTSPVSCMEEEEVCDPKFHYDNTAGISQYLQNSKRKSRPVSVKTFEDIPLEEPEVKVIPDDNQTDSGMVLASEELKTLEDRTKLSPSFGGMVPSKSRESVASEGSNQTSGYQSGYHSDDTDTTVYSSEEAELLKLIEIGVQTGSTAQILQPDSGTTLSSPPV
FGFR-1, sequence (P11362 22-822, species assumed): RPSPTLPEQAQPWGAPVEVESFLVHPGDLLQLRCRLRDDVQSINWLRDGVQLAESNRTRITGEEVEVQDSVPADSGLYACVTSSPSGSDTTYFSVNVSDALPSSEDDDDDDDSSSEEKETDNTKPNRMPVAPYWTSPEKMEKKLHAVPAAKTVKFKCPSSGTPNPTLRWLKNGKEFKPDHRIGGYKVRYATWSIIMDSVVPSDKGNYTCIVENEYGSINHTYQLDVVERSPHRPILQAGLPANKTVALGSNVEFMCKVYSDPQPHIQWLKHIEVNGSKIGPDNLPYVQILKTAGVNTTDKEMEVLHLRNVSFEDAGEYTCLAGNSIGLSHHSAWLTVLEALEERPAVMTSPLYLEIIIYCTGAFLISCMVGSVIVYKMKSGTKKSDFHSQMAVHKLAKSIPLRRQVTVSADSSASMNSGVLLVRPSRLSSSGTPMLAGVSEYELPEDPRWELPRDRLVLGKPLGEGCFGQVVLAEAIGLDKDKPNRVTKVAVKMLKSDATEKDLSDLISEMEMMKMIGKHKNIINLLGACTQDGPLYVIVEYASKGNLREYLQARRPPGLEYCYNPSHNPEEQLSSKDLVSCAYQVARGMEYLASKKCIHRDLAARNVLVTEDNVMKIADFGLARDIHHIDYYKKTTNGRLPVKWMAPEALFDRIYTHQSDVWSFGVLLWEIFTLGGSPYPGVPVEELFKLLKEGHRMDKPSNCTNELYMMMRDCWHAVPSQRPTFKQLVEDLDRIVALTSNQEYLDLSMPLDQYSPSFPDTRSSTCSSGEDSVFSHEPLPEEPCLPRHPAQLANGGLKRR
B-Raf, sequence (P15056 whole entry, species assumed): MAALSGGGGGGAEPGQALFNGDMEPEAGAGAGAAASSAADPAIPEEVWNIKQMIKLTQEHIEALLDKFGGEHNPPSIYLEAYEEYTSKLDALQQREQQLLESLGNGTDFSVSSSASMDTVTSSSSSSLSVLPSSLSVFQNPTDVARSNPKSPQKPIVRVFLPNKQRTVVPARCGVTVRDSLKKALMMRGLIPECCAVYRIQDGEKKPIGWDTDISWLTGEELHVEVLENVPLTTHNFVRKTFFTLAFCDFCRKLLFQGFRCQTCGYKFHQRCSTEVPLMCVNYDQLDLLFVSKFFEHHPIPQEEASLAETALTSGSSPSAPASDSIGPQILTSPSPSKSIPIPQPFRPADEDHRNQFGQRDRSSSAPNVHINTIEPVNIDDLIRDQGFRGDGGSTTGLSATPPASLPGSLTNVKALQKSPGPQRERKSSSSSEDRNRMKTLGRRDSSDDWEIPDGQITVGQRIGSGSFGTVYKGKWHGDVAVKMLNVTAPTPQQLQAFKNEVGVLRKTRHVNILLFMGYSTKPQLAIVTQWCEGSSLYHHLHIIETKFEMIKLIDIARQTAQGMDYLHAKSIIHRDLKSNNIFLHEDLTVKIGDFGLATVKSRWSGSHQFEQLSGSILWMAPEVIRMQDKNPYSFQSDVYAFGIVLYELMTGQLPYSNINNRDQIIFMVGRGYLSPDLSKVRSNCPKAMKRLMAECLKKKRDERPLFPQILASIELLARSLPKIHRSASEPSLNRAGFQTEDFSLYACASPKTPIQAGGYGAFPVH
Src, sequence (P12931 whole entry, species assumed): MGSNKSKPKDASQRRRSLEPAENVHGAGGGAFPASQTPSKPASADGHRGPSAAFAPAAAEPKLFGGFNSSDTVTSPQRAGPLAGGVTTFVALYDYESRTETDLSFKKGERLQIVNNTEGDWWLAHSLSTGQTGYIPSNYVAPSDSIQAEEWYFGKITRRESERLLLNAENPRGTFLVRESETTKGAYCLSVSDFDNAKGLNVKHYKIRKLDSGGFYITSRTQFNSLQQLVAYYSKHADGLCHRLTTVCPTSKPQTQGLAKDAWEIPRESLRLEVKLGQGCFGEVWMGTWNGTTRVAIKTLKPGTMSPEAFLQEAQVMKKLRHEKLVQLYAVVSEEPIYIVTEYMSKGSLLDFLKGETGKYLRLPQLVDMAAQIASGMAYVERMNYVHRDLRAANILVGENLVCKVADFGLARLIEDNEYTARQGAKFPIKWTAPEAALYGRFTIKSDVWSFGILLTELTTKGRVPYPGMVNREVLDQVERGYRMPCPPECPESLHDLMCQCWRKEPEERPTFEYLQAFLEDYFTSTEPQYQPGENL

Row | SMILES | IC50 [1, 10] [nM] | IC50 ([2]; Table 2, ATP 50 μM) [nM] | IC50 ([3]; Table 1, ATP 50 μM) [nM] | IC50 [1, 11] [nM] | IC50 ([2]; Table 1, ATP 50 μM) [nM] | IC50 [4] [µM] | IC50 ([3]; Table 2, ATP 50 μM) [nM] | further results
1 | O=C(Nc1ccc(-c2cccc(NC(=O)C3CC3)n2)cc1)Nc1ccccc1F [CDAU-23] | > 1000 | > 1000 |  |  |  |  |  | 
2 | CC(C)(C)NC(=O)Nc1ccc(-c2ccc(NC(=O)C3CC3)nc2)cc1 [CDAU-9] |  |  | > 1000 | 858 | > 1000 |  |  | 
3 | CC(C)(C)c1ccc(NC(=O)Nc2ccc(-c3cccc(NC(=O)C4CC4)n3)cc2)cc1 [CDAU-15] | > 1000 | 28 |  |  |  |  |  | 
4 | O=C(Nc1ccc(-c2ccc(NC(=O)C3CC3)nc2)cc1)Nc1ccc(F)c(F)c1 [CDAU-4] |  |  |  | > 1000 | 1.42 | 85 |  | 
5 | O=C(Nc1ccc(-c2cccc(NC(=O)C3CC3)n2)cc1)Nc1ccc(Cl)cc1Cl [CDAU-20] | 78.8 | 42.7 |  |  |  | 45.7 |  | 
6 | CC(C)c1cccc(NC(=O)Nc2ccc(-c3cccc(NC(=O)C4CC4)n3)cc2)c1 [CDAU-17] |  | 63 |  |  |  | 133 | 170 | 
7 | O=C(Nc1ccc(-c2ccc(NC(=O)C3CC3)nc2)cc1)Nc1ccc(C(F)(F)F)c(C(F)(F)F)c1 [CDAU-3] |  |  | > 1000 | 27.5 | 2 | 309 |  | melting point: 241 to 243 °C
8 | O=C(Nc1ccc(-c2ccc(NC(=O)C3CC3)nc2)cc1)Nc1ccc(Cl)c(C(F)(F)F)c1 [CDAU-2] |  |  | 5.11 | 8.32 | 1.01 | 14.5 |  | IC50 [5]: 191 nM; IC50 [6]: 317 nM; IC50 [7]: > 500 nM; Anti-angiogenesis potency: inhibition of vessel outgrowth from lung tissue [8]: inhibited vessels outgrew from the periphery of the lung tissues evidently; IC50 [9]: 34.6 nM
9 | O=C(Nc1ccc(-c2ccc(NC(=O)C3CC3)nc2)cc1)Nc1cccc(Cl)c1 [CDAU-6] |  |  | 948 | 32.9 | 23.3 | 880 |  | 
10 | Cc1cccc(C)c1NC(=O)Nc1ccc(-c2cccc(NC(=O)C3CC3)n2)cc1 [CDAU-25] | > 1000 |  |  |  |  |  | > 1000 | 
11 | O=C(Nc1ccc(-c2cccc(NC(=O)C3CC3)n2)cc1)Nc1cccc(Cl)c1 [CDAU-18] | 4.92 |  |  |  |  | 22.6 | > 1000 | 
12 | O=C(Nc1ccc(-c2ccc(NC(=O)C3CC3)nc2)cc1)Nc1cccc(C(F)(F)F)c1 [CDAU-1, N-(5-(4-(3-(3-(trifluoromethyl)phenyl)ureido)phenyl)pyridin-2-yl)cyclopropanecarboxamide] |  |  | 5.34 | 7.2 | 1.11 | 16.1 |  | melting point: 270 to 272 °C; IC50 [5]: 204 nM; IC50 [6]: 155 nM; IC50 [7]: > 500 nM; IC50 [9]: 57.2 nM
13 | O=C(Nc1ccc(-c2cccc(NC(=O)C3CC3)n2)cc1)Nc1ccc(Cl)c(C(F)(F)F)c1 [CDAU-12, N-(6-(4-(3-(4-chloro-3-(trifluoromethyl)phenyl)ureido)phenyl)pyridin-2-yl)cyclopropanecarboxamide] | > 1000 | > 1000 |  |  |  |  | > 1000 | 
